Reference: PMC10713630, “Elucidation of the structural basis for ligand binding and translocation in conserved insect odorant receptor co-receptors” (Nature Communications, 2023)
Values joined by “and” are separate entries in the source; they are usually repeats but may differ in a detail not shown here. Equal entries are not always repeated.

Experiments:
DmelOrco Y390S = DmelOrco Y390S (Drosophila melanogaster, UniProt Q9VNB5, Y390S); assay: TEVC recording of VUAA1-induced current, DmelOrco Y390S in Xenopus oocytes; type: cell-based; conditions: 500 µM VUAA1, TEVC
DmelOrco Y390S, sequence (Q9VNB5 whole entry Y390S, the tested form may be a part): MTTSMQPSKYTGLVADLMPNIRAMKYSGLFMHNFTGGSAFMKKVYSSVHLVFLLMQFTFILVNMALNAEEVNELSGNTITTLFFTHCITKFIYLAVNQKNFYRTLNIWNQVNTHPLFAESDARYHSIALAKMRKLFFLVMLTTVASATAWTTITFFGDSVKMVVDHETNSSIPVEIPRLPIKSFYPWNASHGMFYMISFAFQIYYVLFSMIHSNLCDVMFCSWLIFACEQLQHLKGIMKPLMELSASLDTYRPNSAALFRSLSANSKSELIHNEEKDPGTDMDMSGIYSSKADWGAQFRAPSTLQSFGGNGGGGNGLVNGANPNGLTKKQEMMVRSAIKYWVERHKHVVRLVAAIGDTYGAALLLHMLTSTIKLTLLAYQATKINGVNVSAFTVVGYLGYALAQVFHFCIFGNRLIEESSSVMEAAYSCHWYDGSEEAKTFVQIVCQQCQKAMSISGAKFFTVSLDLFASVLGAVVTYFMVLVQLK
Description: (§1) All Orco gene sequences were optimized[63] for protein expression in Xenopus laevis oocytes with the GenSmartTM Codon optimization Tool and subcloned into a pGEMHE-derived vector. The wildtype gene of Drosophila melanogaster Orco (DmelOrco) was synthesized by Genscript and subcloned with XmaI/XhoI cloning sites. Site-directed mutagenesis of DmelOrco was done by PCR with the Q5® site directed mutagenesis kit (NEB) using primers optimized with the NEBase Changer online tool and following the supplier’s protocol. After transformation of commercial competent bacteria (XL10 Gold) by standard heat-shock protocol and overnight culture in ampicillin-containing LB plates, positive clones were identified by electrophoretic restriction profile and external sequencing (Genewiz). DNAs of positive clones were amplified with Qiagen MidiPrep Kit and the ORF was fully sequenced. For in vitro transcription, DNAs were linearized with restriction enzyme NotI that cuts a unique site in the 3′ region of the polyA tail. […] DNA and RNA were analyzed by agarose-gel electrophoresis and quantified by spectrophotometry. […]
(§2) Whole cell currents were recorded with the two-electrode voltage-clamp (TEVC) technique with the HiClamp robot (MultiChannel System). […] Data were extracted with M. Vivaudou’s programs[65] and statistically analyzed with Prism 8 (Graphpad).

DmelOrco Y400W = DmelOrco Y400W (Drosophila melanogaster, UniProt Q9VNB5, Y400W); assay: TEVC recording of VUAA1-induced current, DmelOrco Y400W in Xenopus oocytes; type: cell-based; conditions: 500 µM VUAA1, TEVC
DmelOrco Y400W, sequence (Q9VNB5 whole entry Y400W, the tested form may be a part): as the sequence (Q9VNB5 whole entry Y390S, the tested form may be a part) above, with S390Y, Y400W counted along it
Description: as §1, §2

MdesOrco = conditions: cited from earlier work
DmelOrco V206S = DmelOrco V206S (Drosophila melanogaster, UniProt Q9VNB5, V206S); assay: TEVC recording of VUAA1-induced current, DmelOrco V206S in Xenopus oocytes; type: cell-based; parameters: unit not given here; conditions: Fig.4b; individual oocytes
DmelOrco V206S, sequence (Q9VNB5 whole entry V206S, the tested form may be a part): as the sequence (Q9VNB5 whole entry Y390S, the tested form may be a part) above, with V206S, S390Y counted along it
Description: as §1, §2

DmelOrco S146W = DmelOrco S146W (Drosophila melanogaster, UniProt Q9VNB5, S146W); assay: TEVC recording of VUAA1-induced current, DmelOrco S146W in Xenopus oocytes; type: cell-based; conditions: 500 µM VUAA1, TEVC
DmelOrco S146W, sequence (Q9VNB5 whole entry S146W, the tested form may be a part): as the sequence (Q9VNB5 whole entry Y390S, the tested form may be a part) above, with S146W, S390Y counted along it
Description: as §1, §2

DmelOrco Y397F = DmelOrco Y397F (Drosophila melanogaster, UniProt Q9VNB5, Y397F); assay: TEVC recording of VUAA1-induced current, DmelOrco Y397F in Xenopus oocytes; type: cell-based; parameters: VUAA1-induced current, Y397F: unit not given here
DmelOrco Y397F, sequence (Q9VNB5 whole entry Y397F, the tested form may be a part): as the sequence (Q9VNB5 whole entry Y390S, the tested form may be a part) above, with S390Y, Y397F counted along it
Description: as §1, §2

DmelOrco M210L = DmelOrco M210L (Drosophila melanogaster, UniProt Q9VNB5, M210L); assay: TEVC recording of VUAA1-induced current, DmelOrco M210L in Xenopus oocytes; type: cell-based; conditions: 500 µM VUAA1, TEVC
DmelOrco M210L, sequence (Q9VNB5 whole entry M210L, the tested form may be a part): as the sequence (Q9VNB5 whole entry Y390S, the tested form may be a part) above, with M210L, S390Y counted along it
Description: as §1, §2

DmelOrco Y390A = DmelOrco Y390A (Drosophila melanogaster, UniProt Q9VNB5, Y390A); assay: TEVC recording of VUAA1-induced current, DmelOrco Y390A in Xenopus oocytes; type: cell-based; conditions: 500 µM VUAA1, TEVC
DmelOrco Y390A, sequence (Q9VNB5 whole entry Y390A, the tested form may be a part): as the sequence (Q9VNB5 whole entry Y390S, the tested form may be a part) above, with S390A counted along it
Description: as §1, §2

DmelOrco F83A = DmelOrco F83A (Drosophila melanogaster, UniProt Q9VNB5, F83A); assay: TEVC recording of VUAA1-induced current, DmelOrco F83A in Xenopus oocytes; type: cell-based; conditions: 500 µM VUAA1, TEVC
DmelOrco F83A, sequence (Q9VNB5 whole entry F83A, the tested form may be a part): as the sequence (Q9VNB5 whole entry Y390S, the tested form may be a part) above, with F83A, S390Y counted along it
Description: as §1, §2

DmelOrco Y390F = DmelOrco Y390F (Drosophila melanogaster, UniProt Q9VNB5, Y390F); assay: TEVC recording of VUAA1-induced current, DmelOrco Y390F in Xenopus oocytes; type: cell-based; conditions: 500 µM VUAA1, TEVC
DmelOrco Y390F, sequence (Q9VNB5 whole entry Y390F, the tested form may be a part): as the sequence (Q9VNB5 whole entry Y390S, the tested form may be a part) above, with S390F counted along it
Description: as §1, §2

DmelOrco F84W = DmelOrco F84W (Drosophila melanogaster, UniProt Q9VNB5, F84W); assay: TEVC recording of VUAA1-induced current, DmelOrco F84W in Xenopus oocytes; type: cell-based; conditions: 500 µM VUAA1, TEVC
DmelOrco F84W, sequence (Q9VNB5 whole entry F84W, the tested form may be a part): as the sequence (Q9VNB5 whole entry Y390S, the tested form may be a part) above, with F84W, S390Y counted along it
Description: as §1, §2

DmelOrco I79W = DmelOrco I79W (Drosophila melanogaster, UniProt Q9VNB5, I79W); assay: TEVC recording of VUAA1-induced current, DmelOrco I79W in Xenopus oocytes; type: cell-based; parameters: VUAA1-induced current, i79W: unit not given here; conditions: for VUAA1-induced current, i79W: individual oocytes
DmelOrco I79W, sequence (Q9VNB5 whole entry I79W, the tested form may be a part): as the sequence (Q9VNB5 whole entry Y390S, the tested form may be a part) above, with I79W, S390Y counted along it
Description: All Orco gene sequences were optimized[63] for protein expression in Xenopus laevis oocytes with the GenSmartTM Codon optimization Tool and subcloned into a pGEMHE-derived vector. The wildtype gene of Drosophila melanogaster Orco (DmelOrco) was synthesized by Genscript and subcloned with XmaI/XhoI cloning sites. Site-directed mutagenesis of DmelOrco was done by PCR with the Q5® site directed mutagenesis kit (NEB) using primers optimized with the NEBase Changer online tool and following the supplier’s protocol. After transformation of commercial competent bacteria (XL10 Gold) by standard heat-shock protocol and overnight culture in ampicillin-containing LB plates, positive clones were identified by electrophoretic restriction profile and external sequencing (Genewiz). DNAs of positive clones were amplified with Qiagen MidiPrep Kit and the ORF was fully sequenced. For in vitro transcription, DNAs were linearized with restriction enzyme NotI that cuts a unique site in the 3′ region of the polyA tail. The linearized DNAs were purified by the standard phenol:chloroform extraction method and transcribed into mRNA using the T7 ultra mMessage mMachine kit (Thermo Fisher Scientific). mRNAs were purified with the NucleoSpin RNA plus XS kit (Machery-Nagel). DNA and RNA were analyzed by agarose-gel electrophoresis and quantified by spectrophotometry.
Xenopus laevis oocytes were prepared, as previously described. Briefly, oocytes were defolliculated after surgical retrieval by type 1 A collagenase over 2-3 h under smooth horizontal agitation. They were manually selected and incubated at 19 °C in modified-Barth’s solution (1 mM KCl, 0.82 mM MgSO4, 88 mM NaCl, 2.4 mM NaHCO3, 0.41 mM CaCl2, Ca(NO3)2 0.3 mM, 16 mM HEPES, pH 7.4) supplemented with 100 U mL^−1 of penicillin and streptomycin and 0.1 mg mL^−1 of gentamycin. Each oocyte was micro-injected with the Nanoject instrument (Drummond) with 50 nL of 20 ng of mRNA coding for the Orco of interest. Injected oocytes were incubated individually in 96-well plates for 4 days at 19 °C in the same buffer. Different batches of oocytes have been tested per construct. The results of the mutants of interest have been confirmed by a second set of experiments comparing the amplitudes with WT in the same day and from the same batch of oocytes (Supplementary Fig. 11).
Whole cell currents were recorded with the two-electrode voltage-clamp (TEVC) technique with the HiClamp robot (MultiChannel System). Microelectrodes were filled with 3 M KCl. The high K^+ buffer used for recordings was composed of 91 mM KCl, 1 mM MgCl2, 1.8 mM CaCl2, 5 mM HEPES, pH 7.4. Membrane voltage was clamped to −50 mV and VUAA1 was applied for 60 s. Data were extracted with M. Vivaudou’s programs[65] and statistically analyzed with Prism 8 (Graphpad).

DmelOrco I181A = DmelOrco I181A (Drosophila melanogaster, UniProt Q9VNB5, I181A); assay: TEVC recording of VUAA1-induced current, DmelOrco I181A in Xenopus oocytes; type: cell-based; parameters: VUAA1-induced current, i181A: unit not given here
DmelOrco I181A, sequence (Q9VNB5 whole entry I181A, the tested form may be a part): as the sequence (Q9VNB5 whole entry Y390S, the tested form may be a part) above, with I181A, S390Y counted along it
Description: as §1, §2

DmelOrco L141A = DmelOrco L141A (Drosophila melanogaster, UniProt Q9VNB5, L141A); assay: TEVC recording of VUAA1-induced current, DmelOrco L141A in Xenopus oocytes; type: cell-based; conditions: 500 µM VUAA1, TEVC
DmelOrco L141A, sequence (Q9VNB5 whole entry L141A, the tested form may be a part): as the sequence (Q9VNB5 whole entry Y390S, the tested form may be a part) above, with L141A, S390Y counted along it
Description: as §1, with “sequenced.” for “sequenced. For in vitro transcription, DNAs were linearized with restriction enzyme NotI that cuts a unique site in the 3′ region of the polyA tail.”
Whole cell currents were recorded with the two-electrode voltage-clamp (TEVC) technique with the HiClamp robot (MultiChannel System). […] Data were extracted with M. Vivaudou’s programs[65] and statistically analyzed with Prism 8 (Graphpad). […]
100 by 500 µM of the ligand VUAA1 and measured by TEVC recordings on DmelOrco WT and mutants […]

CCc1ccc(NC(=O)CSc2nnc(-c3cccnc3)n2CC)cc1 [VUAA1, N-(4-ethylphenyl)−2-((4-ethyl-5-(3-pyridinyl)−4H-1,2,4-triazol-3-yl)thio)acetamide]
Current induced by VUAA1 (median) (DmelOrco Y390S): 2.44 µA
Response to VUAA1 compared with WT (DmelOrco Y400W): did not significantly change the response
Sensitivity of MdesOrco to VUAA1 (MdesOrco): VUAA1-insensitive
VUAA1-induced current, V206S (DmelOrco V206S): 3.68 and 9.72 and 7.51 and 6.18 and 8.36 and 5.44 and 4.17 and 5.76
Response to VUAA1 compared with WT (DmelOrco S146W): significant decrease in the response
Response to VUAA1 compared with WT (DmelOrco Y397F; 500 µM VUAA1, TEVC, Y397F): did not significantly change the amplitude of activation
VUAA1-induced current, Y397F (DmelOrco Y397F; Fig.4b, individual oocytes): 14.1 and 7.4 and 4.67 and 7.65 and 5.6 and 7.22 and 3.47 and 4.51 and 1.74 and 9.4 and 9.69 and 15.89
Current induced by VUAA1 (median) (DmelOrco M210L): 6.19 µA
Response to VUAA1 compared with WT (DmelOrco Y390A): did not show significant change
Current induced by VUAA1 (median) (DmelOrco F83A): 2.33 µA
Response to VUAA1 compared with WT (DmelOrco Y390F): did not show significant change
Response to VUAA1 compared with WT (DmelOrco F84W): did not induce a significant change
Response to VUAA1 compared with WT (DmelOrco I79W; 500 µM VUAA1, TEVC, I79W): significantly reduced or abolished the activation
VUAA1-induced current, i79W (DmelOrco I79W; Fig.4b): 0.5 and 0.66 and 0.09 and 0.23 and 0.24 and 0.02 and 0.06 and 0.14 and 0.05
VUAA1-induced current, i79W (DmelOrco I79W; Fig.4i dose-response, VUAA1 10 µM (Log(M) -5)): 0.07 (2×) and 0.12 and 0.2 and 0.01 (3×) and 0.02 and 0.41 and 0.18
VUAA1-induced current, i79W (DmelOrco I79W; Fig.4i dose-response, VUAA1 25 µM (Log(M) -4.6)): 0.12 and 0.11 and 0.22 and 0.36 and 0.01 (3×) and 0.03 and 0.6 and 0.26
VUAA1-induced current, i79W (DmelOrco I79W; Fig.4i dose-response, VUAA1 50 µM (Log(M) -4.3)): 0.18 and 0.17 and 0.32 and 0.56 and 0.02 (2×) and 0.03 and 0.05 and 0.68 and 0.28
VUAA1-induced current, i79W (DmelOrco I79W; Fig.4i dose-response, VUAA1 100 µM (Log(M) -4)): 0.23 and 0.22 and 0.41 and 0.7 and 0.02 (2×) and 0.06 and 0.09 and 0.71 and 0.29
VUAA1-induced current, i79W (DmelOrco I79W; Fig.4i dose-response, VUAA1 500 µM (Log(M) -3.3)): 0.29 and 0.28 and 0.52 and 0.84 and 0.02 and 0.07 and 0.12 and 0.82 and 0.03 and 0.25
VUAA1-induced current, i79W (DmelOrco I79W; Fig.4i dose-response, VUAA1 1000 µM (Log(M) -3)): 0.38 and 0.36 and 0.67 and 1.01 and 0.03 and 0.09 and 0.14 and 0.96 and 0.04 and 0.24
Imax (DmelOrco I79W; concentration-effect curve of VUAA1, TEVC, I79W): 0.65 µA
Response to VUAA1 compared with WT (DmelOrco I181A; 500 µM VUAA1, TEVC, I181A): did not significantly affect the amplitude of activation
VUAA1-induced current, i181A (DmelOrco I181A; Fig.4b, individual oocytes): 2.04 and 7.33 and 5.46 and 2.9 and 2.3 and 1.5 and 5.38 and 11.56 and 4.17 and 3.69
Response to VUAA1 compared with WT (DmelOrco L141A): did not induce significant change
